Reference: article PMC10709440, “High-throughput ligand profile characterization in novel cell lines expressing seven heterologous insect olfactory receptors for the detection of volatile plant biomarkers” (Scientific Reports, 2023)
Read-outs that look alike come from different tables or passages of the source.

Columns and labels:
[1] = molecular target: T1, Drosophila OR85b (Drosophila melanogaster, UniProt Q9VHQ7); assay: Calcium ion fluorescence (GCaMP6) assay, OR85b stable HEK293 cell line; type: cell-based; settings: for OR85b response (VUAA1-normalized) at 1 μM / OR85b response (VUAA1-normalized) at 10 μM / OR85b response (VUAA1-normalized) at 100 μM / Average response: OR85b cell line; for Average response: VUAA1-normalized response, mean of biological replicates
T1 construct: expressed in transfected cells
T1 sequence (Q9VHQ7 1-390): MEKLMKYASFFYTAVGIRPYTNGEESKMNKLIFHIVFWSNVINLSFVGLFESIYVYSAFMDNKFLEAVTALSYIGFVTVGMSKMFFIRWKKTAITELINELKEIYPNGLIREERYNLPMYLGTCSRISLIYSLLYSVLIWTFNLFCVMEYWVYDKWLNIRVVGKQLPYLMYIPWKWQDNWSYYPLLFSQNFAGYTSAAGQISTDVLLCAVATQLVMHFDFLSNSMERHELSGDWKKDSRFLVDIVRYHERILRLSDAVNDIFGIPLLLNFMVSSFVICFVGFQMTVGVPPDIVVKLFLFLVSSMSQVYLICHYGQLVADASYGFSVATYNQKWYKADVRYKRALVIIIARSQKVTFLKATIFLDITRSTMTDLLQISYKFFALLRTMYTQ
T1 sequence (Q9VNB5 1-486 partner): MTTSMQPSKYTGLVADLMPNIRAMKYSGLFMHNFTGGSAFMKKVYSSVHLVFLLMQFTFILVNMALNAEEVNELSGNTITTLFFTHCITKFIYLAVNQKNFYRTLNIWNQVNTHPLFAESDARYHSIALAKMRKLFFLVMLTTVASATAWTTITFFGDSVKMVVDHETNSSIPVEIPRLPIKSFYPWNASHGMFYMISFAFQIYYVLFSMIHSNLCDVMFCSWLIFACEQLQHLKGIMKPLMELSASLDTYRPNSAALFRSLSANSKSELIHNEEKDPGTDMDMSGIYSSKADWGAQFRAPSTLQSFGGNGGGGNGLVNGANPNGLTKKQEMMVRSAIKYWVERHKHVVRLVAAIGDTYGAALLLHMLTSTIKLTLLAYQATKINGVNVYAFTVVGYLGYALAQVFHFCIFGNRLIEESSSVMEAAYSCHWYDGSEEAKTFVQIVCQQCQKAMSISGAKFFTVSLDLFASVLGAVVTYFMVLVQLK
Method in brief: (§1)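 Responses are VUAA1-normalized ΔF: each VOC-evoked calcium signal, (FMAX−F0)/F0 over 30 s after injection, divided by the same line's mean 50 µM VUAA1 response. Cells were doxycycline-induced HEK293 with GCaMP6 and the cognate Drosophila OR, in HEPES buffer pH 7.3; ligands tested 0.01–100 μM.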

[2] = molecular target: T2, Drosophila OR10a (Drosophila melanogaster, UniProt Q9VYZ1); assay: Calcium ion fluorescence (GCaMP6) assay, OR10a stable HEK293 cell line; type: cell-based; settings: for OR10a response (VUAA1-normalized) at 1 μM / OR10a response (VUAA1-normalized) at 10 μM / OR10a response (VUAA1-normalized) at 100 μM: OR10a cell line
T2 construct: expressed in transfected cells
T2 sequence (Q9VYZ1 1-406): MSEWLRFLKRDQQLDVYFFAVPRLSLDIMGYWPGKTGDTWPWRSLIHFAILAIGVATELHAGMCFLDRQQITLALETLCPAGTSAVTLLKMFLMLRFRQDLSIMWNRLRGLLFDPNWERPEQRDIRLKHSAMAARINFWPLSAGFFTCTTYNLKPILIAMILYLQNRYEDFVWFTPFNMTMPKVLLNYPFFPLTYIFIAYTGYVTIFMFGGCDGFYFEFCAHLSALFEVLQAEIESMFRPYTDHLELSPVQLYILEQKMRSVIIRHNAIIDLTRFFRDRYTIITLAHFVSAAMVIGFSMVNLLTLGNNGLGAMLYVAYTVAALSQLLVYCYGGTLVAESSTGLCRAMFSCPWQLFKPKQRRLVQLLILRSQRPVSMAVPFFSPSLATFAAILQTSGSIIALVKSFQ
T2 sequence (Q9VNB5 1-486 partner): T1 sequence (Q9VNB5 1-486 partner)
Method in brief: as §1

[3] = HEK293, read-out: OR85b Average response (VUAA1-normalized)
[4] = ligand concentration 1 (unit not given), 0.05 threshold, values below shown as 0
[5] = ligand concentration 10 (unit not given), 0.05 threshold, values below shown as 0
[6] = ligand concentration 100 (unit not given), 0.05 threshold, values below shown as 0
[7] = HEK293, 1 μM VOC, 50 μM VUAA1 = 1, responses not exceeding 0.05 considered 0, read-out: OR10a Average response (VUAA1-normalized)
[8] = HEK293, 10 μM VOC, 50 μM VUAA1 = 1, responses not exceeding 0.05 considered 0, read-out: OR10a Average response (VUAA1-normalized)
[9] = HEK293, 100 μM VOC, 50 μM VUAA1 = 1, responses not exceeding 0.05 considered 0, read-out: OR10a Average response (VUAA1-normalized)
[10] = HEK293, read-out: OR85b response (VUAA1-normalized response)
[11] = concentration 1, normalized fluorescence change, values below 0.05 threshold given as 0
[12] = concentration 10, normalized fluorescence change, values below 0.05 threshold given as 0
[13] = concentration 100, normalized fluorescence change, values below 0.05 threshold given as 0
[14] = HEK293, read-out: OR10a response (VUAA1-normalized response), VOC concentration 1 μM
[15] = HEK293, read-out: OR10a response (VUAA1-normalized response), VOC concentration 10 μM
[16] = HEK293, read-out: OR10a response (VUAA1-normalized response), VOC concentration 100 μM
[17] = 1 μM VOC, 50 μM VUAA1 = 1, responses not exceeding 0.05 considered 0
[18] = 10 μM VOC, 50 μM VUAA1 = 1, responses not exceeding 0.05 considered 0
[19] = 100 μM VOC, 50 μM VUAA1 = 1, responses not exceeding 0.05 considered 0
[20] = HEK293, read-out: OR10a Average response (VUAA1-normalized), 1 μM VOC, 50 μM VUAA1 = 1, responses not exceeding 0.05 considered 0
[21] = HEK293, read-out: OR10a Average response (VUAA1-normalized), 10 μM VOC, 50 μM VUAA1 = 1, responses not exceeding 0.05 considered 0
[22] = HEK293, read-out: OR10a Average response (VUAA1-normalized), 100 μM VOC, 50 μM VUAA1 = 1, responses not exceeding 0.05 considered 0
[23] = ligand concentration 1 (unit not given), threshold 0.05, below shown as 0
[24] = ligand concentration 10 (unit not given), threshold 0.05, below shown as 0
[25] = ligand concentration 100 (unit not given), threshold 0.05, below shown as 0

Row | SMILES | Average response ([1]; cc. 1 µM) | Average response ([1]; cc. 10 µM) | Average response ([1]; cc. 100 µM) | activation at 1 µM [2, 7] [%] | activation at 10 µM [2, 8] [%] | activation at 100 µM [2, 9] [%] | activation at 1 µM [1, 10] [%] | activation at 10 µM [1, 10] [%] | activation at 100 µM [1, 10] [%] | DF norm AVERAGE OR85b [1, 11] | DF norm AVERAGE OR85b [1, 12] | DF norm AVERAGE OR85b [1, 13] | activation at 1 µM [2, 14] [%] | activation at 10 µM [2, 15] [%] | activation at 100 µM [2, 16] [%] | DF norm AVERAGE OR10a [2, 12] | DF norm AVERAGE OR10a [2, 13] | activation at 1 µM [2, 20] [%] | activation at 10 µM [2, 21] [%] | activation at 100 µM [2, 22] [%] | also measured
1 | CC1=CCC23CC1C(C)(C)C2CCC3C (stereo not drawn) [α-funebrene] | 0.10 | 0.00 | 0.26 | 0 | 0 | 2.42 | – | – | – | – | – | – | – | – | – | – | – | – | – | – | activation at 1 µM [1, 3]: 10%; activation at 10 µM [1, 3]: 0%; activation at 100 µM [1, 3]: 26%; OR85b response (VUAA1-normalized) at 1 μM ([1]; VOC concentration 1 μM): 0.10; OR85b response (VUAA1-normalized) at 10 μM ([1]; VOC concentration 10 μM): 0.00; OR85b response (VUAA1-normalized) at 100 μM ([1]; VOC concentration 100 μM): 0.26; DF norm AVERAGE OR85b [1, 4]: 0.09747; DF norm AVERAGE OR85b [1, 5]: 0; DF norm AVERAGE OR85b [1, 6]: 0.2621; OR10a response (VUAA1-normalized) at 1 μM ([2]; VOC concentration 1 μM): 0.00; OR10a response (VUAA1-normalized) at 10 μM ([2]; VOC concentration 10 μM): 0.00; OR10a response (VUAA1-normalized) at 100 μM ([2]; VOC concentration 100 μM): 0.00; DF norm AVERAGE OR10a [2, 4]: 0; DF norm AVERAGE OR10a [2, 5]: 0; DF norm AVERAGE OR10a [2, 6]: 0
2 | CCCCCC(O)CC (stereo not drawn) [3-octanol] | 0.00 | 0.00 | 0.0171 | 0 | 6 | 6 | 0 | 0 | 0 | 0 | 0 | 0 | 0 | 6 | 6 | 0.05884 | 0.05921 | – | – | – | DF norm AVERAGE OR10a [2]: 0
3 | CC1=CCC[C@@]2(C)[C@@H]3CC[C@]12CC3(C)C [(−)-α-neoclovene] | 0.00 | 0.00 | 0.0165 | – | – | – | – | – | – | 0 | 0 | 0 | – | – | – | – | – | – | – | – | OR85b response (VUAA1-normalized response) ([1]; VOC concentration 1 μM): 0.00; OR85b response (VUAA1-normalized response) ([1]; VOC concentration 10 μM): 0.00; OR85b response (VUAA1-normalized response) ([1]; VOC concentration 100 μM): 0.00; OR10a Average response (VUAA1-normalized) [2, 17]: 0.00; OR10a Average response (VUAA1-normalized) [2, 18]: 0.13; OR10a Average response (VUAA1-normalized) [2, 19]: 0.12; OR10a response (VUAA1-normalized response) ([2]; VOC concentration 1 μM): 0.00; OR10a response (VUAA1-normalized response) ([2]; VOC concentration 10 μM): 0.13; OR10a response (VUAA1-normalized response) ([2]; VOC concentration 100 μM): 0.12
4 | C=C1CC[C@H]2O[C@]2(C)CC[C@@H]2[C@@H]1CC2(C)C [(-)-caryophyllene oxide] | 0.00 | 0.00 | 0.036 | – | – | – | 0 | 0 | 0 | 0 | 0 | 0 | 0 | 0 | 0 | 0 | 0 | 0 | 0 | 0 | DF norm AVERAGE OR10a [2, 11]: 0
5 | CCOC(=O)CC [ethyl propionate] | 0.00 | 0.037 | 0.09 | 1.56 | 1.89 | 0 | 0 | 0 | 9 | – | – | – | 0 | 0 | 0 | – | – | – | – | – | DF norm AVERAGE OR85b [1, 23]: 0; DF norm AVERAGE OR85b [1, 24]: 0; DF norm AVERAGE OR85b [1, 25]: 0.09327; DF norm AVERAGE OR10a [2, 23]: 0; DF norm AVERAGE OR10a [2, 24]: 0; DF norm AVERAGE OR10a [2, 25]: 0
6 | Cc1ccccc1C [o-xylene] | 0.08 | 0.03 | 0.08 | – | – | – | – | – | – | – | – | – | – | – | – | – | – | 0 | 0 | 0 | OR85b response (VUAA1-normalized) at 1 μM ([1]; VOC concentration 1 μM): 0.08; OR85b response (VUAA1-normalized) at 10 μM ([1]; VOC concentration 10 μM): 0.00; OR85b response (VUAA1-normalized) at 100 μM ([1]; VOC concentration 100 μM): 0.08; DF norm AVERAGE OR85b [1, 23]: 0.08035; DF norm AVERAGE OR85b [1, 24]: 0; DF norm AVERAGE OR85b [1, 25]: 0.08274; OR10a response (VUAA1-normalized) at 1 μM ([2]; VOC concentration 1 μM): 0.00; OR10a response (VUAA1-normalized) at 10 μM ([2]; VOC concentration 10 μM): 0.00; OR10a response (VUAA1-normalized) at 100 μM ([2]; VOC concentration 100 μM): 0.00; DF norm AVERAGE OR10a [2, 23]: 0; DF norm AVERAGE OR10a [2, 24]: 0; DF norm AVERAGE OR10a [2, 25]: 0
7 | C=C(C)[C@H]1CC=C(C)CC1 [(R)-(+)-limonene] | 0.0426 | 0.03 | 0.00 | – | – | – | – | – | – | 0 | 0 | 0 | – | – | – | – | – | – | – | – | OR85b response (VUAA1-normalized response) ([1]; VOC concentration 1 μM): 0.00; OR85b response (VUAA1-normalized response) ([1]; VOC concentration 10 μM): 0.00; OR85b response (VUAA1-normalized response) ([1]; VOC concentration 100 μM): 0.00; OR10a Average response (VUAA1-normalized) [2, 17]: 0.00; OR10a Average response (VUAA1-normalized) [2, 18]: 0.12; OR10a Average response (VUAA1-normalized) [2, 19]: 0.0152; OR10a response (VUAA1-normalized response) ([2]; VOC concentration 1 μM): 0.00; OR10a response (VUAA1-normalized response) ([2]; VOC concentration 10 μM): 0.12; OR10a response (VUAA1-normalized response) ([2]; VOC concentration 100 μM): 0.00
8 | CCCCC(C)=O [2-hexanone] | 0.00 | 0.06 | 0.0338 | – | – | – | 0 | 6 | 0 | 0 | 0.05777 | 0 | 10 | 0 | 0 | 0 | 0 | 10 | 0 | 0 | DF norm AVERAGE OR10a [2, 11]: 0.09901
